Earlier results in patent US20220249978A1, “NOVEL SOLVENT FOR EXTRACTING, SOLUBILISING AND/OR FORMULATING VOLATILE AND NON-VOLATILE COMPOUNDS OF INTEREST IN ANIMAL NUTRITION AND HEALTH, PREPARATION METHOD AND USES THEREOF” (ID4TECH, priority 2019, published 2022).

Key:
[1] = test system: Bacillus anthracis; conditions: blocks its growth without killing the cells
[2] = test system: Gram+ but also Gram− bacteria such as Staphylococcus, Streptococcus, Gardnerella, Haemophilus but also Listeria monocytogenes
[3] = test system: Candida strains; conditions: in vitro and in vivo
[4] = test system: pro-inflammatory cytokines (IL-8 and TNF-α)

CCCCCCCCCCCC(=O)OCC(O)CO (stereo not shown) [glycerol monolaurate]
action against Bacillus anthracis [1]: bacteriostatic agent
growth of Gram+ and Gram− bacteria [2]: acts against the growth
growth of Candida strains [3]: inhibits the growth
quantity of pro-inflammatory cytokines (IL-8 and TNF-α) [4]: significant decrease
